Results: patent US20030013685A1, “Process for increasing the egg production and strengthening the eggshells of poultry” (priority 2000, published 2003)
Like-named read-outs stand apart in the source and are kept apart here.

Experiments:
[1] = tested on: laying hens; settings: cited from earlier work
[2] = tested on: hens of ISA Brown strain; assay: Histomorphometric examination of tarsometatarsal bone (medullary bone volume); format: in vivo, hen; settings: for Multiplication factor of medullary bone volume: onset of laying to 55 weeks old
Protocol: (§1) A total number of 216 hens of ISA Brown strain between 15 and 17 weeks old was divided into 3 groups for the purpose of evaluating the effects on the production of eggs of a single subcutaneous administration of tiludronic acid, in the form of its sodium salt (disodium tiludronate).
(§2) Three doses were compared: 0, 1 and 10 mg/kg (corresponding amount of tiludronic acid/kg). The tiludronic acid was administered in the form of injectable aqueous solutions such that the volume injected per bird was 1 ml per kilo of live weight. The tiludronic acid solutions were thus concentrated to 0.1% and 1% for the doses of 1 and 10 mg/kg, respectively. The control group received a placebo corresponding to water for an injectable preparation. The injections were performed subcutaneously in the region above the superficial pectoral muscle.
One half of the total number of hens was sacrificed on laying the first egg, in order to carry out a histomorphometric examination. This examination was performed on one of the two tarsometatarsal bones.
At 55 weeks old, all the animals were sacrificed and a histomorphometric examination of one of the tarsometatarsal bones was performed under the same conditions as on the bones of the hens sacrificed on laying of the first egg.
(§3) The “age of onset of laying”, “total number of eggs laid per hen”, “number of eggs laid per hen and per week over the entire laying period”, “mechanical strength of the shell”, “thickness of the shell” and “medullary bone volume” criteria were compared by means of a single-factor variance analysis (dose factor).

[3] = tested on: hens of ISA Brown strain; assay: Mechanical strength of the eggshell by quasi-static compression; format: in vivo, hen; settings: for Mechanical strength of the shell at 23 weeks: 23 weeks old; for Mechanical strength of the shell at 54 weeks: 54 weeks old
Protocol: as §1, §2
(§4) Moreover, an analysis of the mechanical strength of the shell and the thickness of the mineralized part of the shell was carried out using a sample of 12 hens at the following two dates of maturity: at 23 weeks old (i.e. at the start of laying) and at 54 weeks old. The strength of the shell was measured quantitatively by a technique of quasi-static compression of the eggshell. The thickness of the shell was measured from images obtained with an electron microscope.
as §3

[4] = tested on: hens of ISA Brown strain; assay: Thickness of the mineralized part of the shell from electron microscope images; format: in vivo, hen; settings: for Thickness of the mineralized part of the shell at 23 weeks: 23 weeks old; for Thickness of the mineralized part of the shell at 54 weeks: 54 weeks old
Protocol: as §1, §2, §4, §3

[5] = tested on: hens of ISA Brown strain; assay: Laying parameters of hens after a single subcutaneous administration of tiludronic acid (disodium tiludronate) before onset of laying; format: in vivo, hen; settings: for Age of onset of laying: hens monitored up to 55 weeks old; for Average number of eggs laid per hen and per week / Average total number of eggs laid per hen: from onset of laying up to 55 weeks old
Protocol: as §1, §2
The hens were housed in individual cages in the same building at controlled temperature and hygrometry. Each animal was identified by a number carried on a ring attached to a wing. They received the same standard feed for laying hens, freely throughout the duration of the study. Drinking water was also distributed freely.
The average age of onset of laying for the hens in this strain is 20 weeks, with extremes of between 18 and 23 weeks. Consequently, for the hens of this study, the average delay between the treatment and the age of onset of laying had to be from 3 to 5 weeks. The duration of the study was 40 weeks. At the end of the study, the hens were 55 weeks old.
The other half of the total number of hens was monitored in order to collect the following laying parameters: age on laying the first egg and total number of eggs laid up to 55 weeks old. For each group, the average number of eggs laid per hen and per week was calculated over the entire laying period and week by week, in order to establish the laying curves.
as §3

[6] = treated groups, laying curves FIG. 1 and 2

NCCCC(O)(P(=O)(O)O)P(=O)(O)O [alendronate, [4-amino-1-hydroxybutylidene] bisphosphonate]
Effect on laying ([1]; 1 mg/kg subcutaneously every 2 days for 2 weeks, about 18 weeks after onset of laying, within a few days): complete stoppage of laying
Effect on laying ([1]; 0.01, 0.1 or 1 mg/kg during laying): reduction, or even the stopping, of laying
Effect on the quality of the shell ([1]; administration during laying, more pronounced the higher the dose): adverse change in the quality of the shell

O=P(O)(O)C(Sc1ccc(Cl)cc1)P(=O)(O)O [tiludronic acid, 4-chlorophenylthiomethylenebisphosphonic acid]
Volume of medullary bone of the tarsometatarsal bone at 55 weeks old ([2]; 1 mg/kg): 2.75 ± 2.72%
Volume of medullary bone of the tarsometatarsal bone at the onset of laying ([2]; 1 mg/kg): 0.31 ± 0.53%
Multiplication factor of medullary bone volume ([2]; 1 mg/kg): 9
Volume of medullary bone of the tarsometatarsal bone at 55 weeks old ([2]; 10 mg/kg): 3.53 ± 3.04%
Volume of medullary bone of the tarsometatarsal bone at the onset of laying ([2]; 10 mg/kg): 0.26 ± 0.33%
Multiplication factor of medullary bone volume ([2]; 10 mg/kg): 13
Mechanical strength of the shell at 23 weeks ([3]; 1 mg/kg): 39.3 ± 5.2 N
Mechanical strength of the shell at 54 weeks ([3]; 1 mg/kg): 28.3 ± 4.9 N
Mechanical strength of the shell at 23 weeks ([3]; 10 mg/kg): 41.5 ± 6.3 N
Mechanical strength of the shell at 54 weeks ([3]; 10 mg/kg): 30.3 ± 6.1 N
Loss of mechanical strength of the eggshells between the two maturity dates of measurement ([3]; two treated groups (1 and 10 mg/kg), between 23 and 54 weeks): about −28%
Thickness of the mineralized part of the shell at 23 weeks ([4]; 1 mg/kg): 0.256 ± 0.025 mm
Thickness of the mineralized part of the shell at 54 weeks ([4]; 1 mg/kg): 0.267 ± 0.026 mm
Thickness of the mineralized part of the shell at 23 weeks ([4]; 10 mg/kg): 0.272 ± 0.013 mm
Thickness of the mineralized part of the shell at 54 weeks ([4]; 10 mg/kg): 0.273 ± 0.021 mm
Total number of eggs laid per hen versus control group (2-by-2 analysis) ([5]; 1 mg/kg): significantly higher
Age of onset of laying ([5]; 1 mg/kg single subcutaneous dose): 148.3 ± 7.8 days
Average number of eggs laid per hen and per week ([5]; 1 mg/kg): 6.53 ± 0.27
Average total number of eggs laid per hen ([5]; 1 mg/kg): 221.6 ± 11.2
Start of laying on average after the hens of the other 2 groups ([5]; 1 mg/kg, no significant difference (p=0.11)): 3 days
Age of onset of laying ([5]; 10 mg/kg single subcutaneous dose): 145.1 ± 8.8 days
Average number of eggs laid per hen and per week ([5]; 10 mg/kg): 6.39 ± 0.34
Average total number of eggs laid per hen ([5]; 10 mg/kg): 219.8 ± 12.6
Laying peak compared with control group [5, 6]: higher
Slope of the laying curve compared with controls [5, 6]: substantially smaller
Change in the age of onset of laying ([5]; treatment with tiludronic acid, 1 and 10 mg/kg): did not result in any change
